Entries after “also recorded” stand apart in the source; their conditions may differ. Like-named read-outs stand apart in the source and are kept apart here.
What was measured:
[1] = system: MIA-PaCa-2 EV-derived tumors; test: Mouse model inoculated with pancreas cancer cells, MIA-PaCa-2 EV tumors; format: in vivo; details: 5 mg/kg, 29 days
Experimental: The efficacy and specificity of SNS622-MC-DM1 was first examined in the mouse model with inoculation of pancreas cancer cells. In this model. 5 to 6-week-old female Nod Scid Gamma (NSG) mice (The Jackson Laboratory, Bar Harbor, Me., U.S.A.) were subcutaneously inoculated with 5×10^5 MIA-PaCa-2 EV cells (MIA-PaCa-2 cells transduced with an empty lentivirus vector) in 100 μl buffer solution on one shoulder, and with 5×10^5 MIA-PaCa-2 ASPH cells (MIA-PaCa-2 cells expressing high levels of ASPH) in 100 μl buffer solution on the other shoulder Two weeks post-inoculation, SNS622-MC-DM1 or IgG1-MC-DM1 was injected at 5 mg/kg through a tail vein once a week for 4 weeks. A representation of the schedule used for the ADC treatments is show n in FIG. 13.
The response to treatment with SNS622-MC-DM1 of tumors derived from MIA-PaCa-2 HAAH cells and from MIA-PaCa-2 EV cells were compared in the same mouse.

H460 cells = test: MTS cell viability assay, H460; format: cell-based, human
Experimental: Human H460 cells were obtained from the American Type Culture Collection (ATCC; Manassas, Va., U.S.A.). The H460 cells were seeded at a density of 5,000 cells/well in 96-well plates and cultured in HG-DMEM (ThermoFisher Scientific, Waltham. Mass., U.S.A.; Catalog No. 11965-092) supplemented with 20 mM HEPES, 4 mM L-glutamine, 1 mM sodium pyruvate, 1× non-essential amino acids, 50 μg/ml gentamicin, and 10% fetal bovine serum (FBS)). Human MOLM-14 cells were obtained from Dr. Ashkan Emadi at University of Maryland (Baltimore. Md., U.S.A.). The MOLM-14 cells were seeded at a density of 5000 cells/well in 96-well plates and cultured in RPMI 1640 with 20% heat-inactivated FBS. The H460 and MOLM-14 cells were treated with naked antibodies or ADCs for 24 hours, starting at the time of cell seeding. By the end of experiment, the cell viability for both cell lines was determined quantitatively using CELL TITER 96 AQUOUS ONE SOLUTION cell proliferation assay, a colorimetric method for determining the number of viable cells (MTS; Promega, Madison. Wis., U.S.A.; Catalog No. G3582).
FIG. 6 depicts the effects of linker and payload on cytotoxicity to cancer cell H460. […] The Log of the antibody concentration in nM is shown on the X axis.
The bioactivities of these SNS622 ADCs were examined using H460 cells. The cells were treated for 48 hours with these SNS622-MC-DM1s, or with SNS622 as control. Cell viability was evaluated at the end of the experiment using an MTS assay.
SNS622-MC-vc-PAB-DM1 and SNS622-MC-MMAE were also synthesized under different initial DAR ratios of 2.5:1, 5:1 and 10:1 at fixed pH8. The 460 cells were treated for 72 hours with ADCs SNS622-MC-vc-PAB-DM1 at with OAR 2.5:1; 5:1; and 10:1, or SNS622-MC-MMAE at with DAR 2.5:1; 5:1; and 10:1. The cell viability and cell death were separately quantified with […] and lactate dehydrogenase (LDH) release assays. FIG. 8A depicts a graph of the MTA quantification results expressed as percentage of untreated control. FIG. 8B depicts a graph of the LDH assay results expressed as percentage of 512 nM DM1-elicited maximal LDH release. The Log of the antibody concentration in nM is shown on the X axis.

## SNS622-MC-DM1: SNS622 anti-HAAH monoclonal antibody conjugated to mertansine (DM1) by the non-cleavable linker maleimidocaproyl (MC)
[1]
  Effect on MIA-PaCa-2 EV tumor growth: grew fast throughout the duration of the experiment; also recorded: much lower effect on tumors derived from MIA-PaCa-2 EV cells
H460 cells; H460, 24 hours
  Effect on H460 cell viability / growth (MTS): decreased the H460 cell viability; also recorded: inhibit in vitro cell growth of both H460 and MOLM-14
H460 cells; H460, 24 hours, read-out: EC50, killing of H460 cells (MTS)
  EC50: ~15 nM
H460 cells; H460, 72 hours, reaction DAR 10:1, read-out: IC50 of MTS
  IC50: 64 nM
H460 cells; stated for both cancer cell lines (H460 and MOLM-14), read-out: IC50, suppressing cell growth
  IC50: 15 nM
